Reference: EPA's ToxValDB 9.5 (doi:10.2903/j.efsa.2012.2522)
≈ marks a conversion by molar mass, not a printed value.

How the values were obtained:
[1] = tested on: Oryctolagus sp.
[2] = tested on: Anas platyrhynchos
[3] = tested on: Folsomia candida; conditions: chronic/long-term
[4] = tested on: Rattus norvegicus
[5] = tested on: Bibionidae; conditions: chronic/long-term; duration: 28 days
[6] = tested on: Apis mellifera; conditions: acute, mortality
[7] = tested on: Daphnia magna; conditions: chronic/long-term; duration: 21 days; reproduction
[8] = tested on: Pimephales promelas; conditions: chronic/long-term; duration: 33 days; growth
[9] = tested on: Tagia sp.
[10] = tested on: Cyprinus carpio; conditions: acute; duration: 96 hours; mortality
[11] = tested on: Colinus virginianus
[12] = reproduction developmental, body weight

## O=C(O)c1cn[nH]c1C(F)F [1H-3-Difluoromethylpyrazole-4-carboxylic acid]
[1]; [12]
  NOAEL: 300 mg/kg-day

## Cn1cc(C(=O)O)c(C(F)F)n1 [3-(Difluoromethyl)-1-methyl-1H-pyrazole-4-carboxylic acid]
[1]; reproduction developmental, no effects
  NOAEL: 250 mg/kg-day

## Cn1cc(C(=O)Nc2ccccc2-c2cc(F)c(F)c(F)c2)c(C(F)F)n1 [Fluxapyroxad]
[2]; acute, oral, unspecified, mortality
  LD50: > 2000 mg/kg-day
[2]; reproductive
  NOEC: 33.6 mg/kg-day
[2]; short-term, oral, feed, mortality
  LC50: > 1720 mg/kg-day
[1]; developmental, development
  NOAEL: 25 mg/kg-day
[3]
  NOEC: 2.99 mg/kg
[4]; acute, oral, mortality
  LD50: > 2000 mg/kg-day
[4]; chronic, duration: 2 years, organ weight
  NOAEL: 2.1 mg/kg-day
[4]; [12]
  NOAEL: 25 mg/kg-day
[4]; subchronic, duration: 90 days, oral, organ weight
  NOAEL: 6 mg/kg-day
[5]
  NOEC: 75.9 mg/L
[6]; dermal
  LD50: > 100 µg/piece
[6]; oral, unspecified
  LD50: > 111 µg/piece
[7]
  NOEC: 0.5 mg/L
[8]
  NOEC: 0.0359 mg/L
[9]; acute, mortality
  LC50: > 1000 mg/kg
[9]; chronic/long-term, duration: 56 days
  NOEC: 21.3 mg/kg
[10]
  LC50: 0.29 µg/mL (≈ 0.761 µM)
[11]; acute, oral, diet, mortality
  LC50: > 912 mg/kg-day
[11]; acute, oral, mortality
  LD50: > 2000 mg/kg-day
[11]; reproduction developmental
  NOEC: 74.6 mg/kg-day
